Measured values reported in PubChem BioAssay AID1159560 (GlaxoSmithKline (GSK), 2015).
Calls of active or inactive are those of the source. How the calls were made is not given here.

What follows are compounds tested on Leishmania donovani growth inhibition (assay: antileishmanial activity against L. donovani parasites (AID 1159560);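 further: parasites exposed to compound for 72 h before the viability read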).
With `NC(=O)c1ncc(N[C@@H]2CCCNC2)nc1Nc1cccc(Cl)c1` the IC50 was 2.5 µM.
For `O=C(NCCc1ccn(-c2ccccc2)n1)C1CCCCC1`, the IC50 was > 50 µM (inactive).
`COc1ccccc1CNc1cc(C2CC2)nc(-c2nccn2C)n1` gave an IC50 of 1 µM.
For `CN(C)c1ccc(-c2cc3nccnc3c(OC[C@H]3CCCNC3)n2)cn1`, the IC50 was > 50 µM (inactive).
For `COc1ccccc1-n1c(SCC(=O)Nc2ccc3c(c2)OCO3)nc2c(c1=O)SCC2`, the IC50 was 10 µM.
For `CCCc1nc2nc(N)nc(N)c2cc1CC`, the IC50 was 2 µM.
For `CNC(=O)C1Cc2ccccc2N1C(=O)Cc1ccc(OC)cc1` (configuration not stated), the IC50 was > 50 µM (inactive).
Work on `COc1cnc2ccc(=O)n(CCN3CCC(NC/C=C/c4cc(F)ccc4F)CC3)c2c1` yielded an IC50 of 5 µM.
Compound `O=C(O)[C@H]1C[C@@H]1c1ccc(-c2ccc(CN(CCc3ccccn3)C(=O)C3CCC3)cc2)cc1` has an IC50 of 25 µM.
With `COc1ccc2ncc(=O)n(CCN3CCOC(CNCc4ccc(C(F)(F)F)cc4F)C3)c2n1` (configuration not stated) the IC50 was 40 µM.
In the case of `CCOc1ccc(NC(=O)C=Cc2ccc(CC)o2)cc1`, the IC50 is reported as 20 µM.
Compound `CCOc1cnn(C)c(=O)c1Nc1ccc(C(=O)NCc2ccc(F)cc2)cc1` has an IC50 of 32 µM.
For `COc1ccc(Oc2ccc(C(C)N(C)c3ncc4c(N)nc(N)nc4n3)cc2)cc1` (configuration not stated), the IC50 was 0.04 µM.
With `CC(C)(C)CC(=O)NCc1noc(COc2ccccc2)n1` the IC50 was > 50 µM (inactive).
Work on `O=C(NNC(=O)c1ccccn1)c1ccc(-c2ccccc2)cc1` yielded an IC50 of 3.2 µM.
Compound `O=C(Nc1ccccc1)Nc1nc(-c2ccccn2)cs1` has an IC50 of 1.6 µM.
For `CN(Cc1nc2ccc(C(=O)NCC3CCCCC3)cc2[nH]1)C1CCCc2cccnc21` (configuration not stated), the IC50 was 3.2 µM.
For `Cc1nn(-c2nc(N)nc(-c3ccccn3)n2)c(N)c1-c1ccccc1`, the IC50 was 5 µM.
With `NCc1ccc2c(Cl)cc(Cl)c(O)c2n1` the IC50 was 6.3 µM.
`Cn1nccc1NC(=O)Cn1ccc(-c2ccncc2)n1` was tested, and the IC50 was > 50 µM (inactive).
Work on `Cc1ccc2ccc(C(Nc3ccccn3)c3cccnc3)c(O)c2n1` (configuration not stated) yielded an IC50 of 0.4 µM.
`CN(C)Cc1ccc(N2CCC(NS(=O)(=O)c3ccc(Cl)cc3)CC2)cc1` gave an IC50 of 40 µM.
`N#Cc1cc([N+](=O)[O-])ccc1NC1CCCCCC1` was tested, and the IC50 was > 50 µM (inactive).
Compound `CC(CCc1ccccc1)NC(=O)CN(Cc1ccccn1)Cc1ccccn1` (configuration not stated) has an IC50 of 7.9 µM.
With `CN1CCC(N(C)c2nccc(N3CCN(C(=O)c4cccc(-c5cccnc5)c4)CC3)n2)CC1` the IC50 was > 50 µM (inactive).
`CN(Cc1ccccc1)Cc1nnnn1C1CCN(Cc2ccc(-n3ccnc3)cc2)CC1` was tested, and the IC50 was > 50 µM (inactive).
Work on `Cc1cc(Nc2cc(C3CC3)[nH]n2)nc(N2CCC[C@H]2C(N)=O)n1` yielded an IC50 of 0.63 µM.
`O=C(Nc1nc(-c2ccccn2)cs1)C1CCc2ccccc2C1` (configuration not stated) gave an IC50 of 5 µM.
Work on `Fc1ccc(Nc2nc(-c3ccccn3)cs2)cc1` yielded an IC50 of 20 µM.
Compound `COc1ncc(-c2ccc3nccc(-c4ccncc4)c3c2)cc1NS(C)(=O)=O` has an IC50 of 3.2 µM.
`O=C(Nc1nccs1)c1ccccc1Cn1cc([N+](=O)[O-])cn1` was tested, and the IC50 was > 50 µM (inactive).
In the case of `O=C1CCCCCC1(Cc1cnc[nH]1)c1ccc(Cl)cc1Cl` (configuration not stated), the IC50 is reported as > 50 µM (inactive).
`COc1ccc2ncc(F)c(CCN3CC[C@@H](NC(=O)c4cc5c(s4)CCC5)[C@@H](O)C3)c2n1` was tested, and the IC50 was 1 µM.
Compound `CCn1c(-c2nonc2N)nc2c([C@@H](C)O)ncc(O[C@H](CN)c3ccccc3)c21` has an IC50 of 20 µM.
`Cc1nnnn1-c1cccc(C(=O)N2CCC[C@@]3(C)c4ncncc4CCC23)c1` (some centres not stated) showed an IC50 of 0.4 µM.
In the case of `COc1cc2c(cc1OC)[C@H]1[C@@H](C)c3ccc(OC)c(OC)c3CN1CC2`, the IC50 is reported as 2.5 µM.
In the case of `COc1ccc2ncc(=O)n(CCN3CC[C@H](NCc4ncc(Cl)c5[nH]ncc45)[C@H](O)C3)c2n1`, the IC50 is reported as > 50 µM (inactive).
Work on `CC(C)c1sc(Cl)nc1C(=O)NCCc1nc(C(=O)Nc2ccc3c(c2)OCO3)cs1` yielded an IC50 of 4 µM.
For `COc1cnc2ccc(=O)n(CCN3CCC(NC(=O)c4ccc(Cl)cc4)CC3)c2c1`, the IC50 was 2 µM.
For `O=C(COc1ncnc2cc([N+](=O)[O-])ccc12)NC(=O)NC1CCCCC1`, the IC50 was > 50 µM (inactive).
With `COc1ccc(CN2CCCCC2c2nc(-c3cccnc3)no2)cc1` (configuration not stated) the IC50 was > 50 µM (inactive).
In the case of `O=C(Cn1cnc([N+](=O)[O-])n1)Nc1ccc(Cl)cc1C(=O)c1ccccc1`, the IC50 is reported as > 50 µM (inactive).
In the case of `Cc1cc(Br)sc1CNCCCNc1cc(=O)c2ccccc2[nH]1`, the IC50 is reported as > 50 µM (inactive).
For `O=C(NCC1CCCCN1C(=O)c1cccc2ccccc12)c1ccccc1` (configuration not stated), the IC50 was > 50 µM (inactive).
`COc1ccc2c(Cl)c(C(=O)N3CCC3)sc2c1Cl` was tested, and the IC50 was > 50 µM (inactive).
With `Cc1cc(C#N)c([N+](=O)[O-])cc1Br` the IC50 was 25 µM.
`COc1ccc(Nc2nc(NC3CCC(O)CC3)ncc2Br)c(C(N)=O)c1` (configuration not stated) showed an IC50 of 3.2 µM.
